This note sets out measurements from US6953786B2, “Compositions comprising plant-derived polyphenolic compounds and inhibitors of reactive oxygen species and methods of using thereof” (The Regents of the University of California, priority 2002, dated 2005).

Entries after “also recorded” stand apart in the source; their conditions may differ.

In test [1] the test system is cytochrome c. The test can be described thus: Mitochondrial cytochrome c release (Western blot). The class given is cell-based, human. Conditions: Mia PACA-2, 24 hours, 100 μM, no serum. The procedure: In order to determine the effects polyphenolic compounds have on mitochondrial cytochrome c release and apoptosis, the following assay was conducted. BSp73AS cells were cultured for 6 hours and Mia PACA-2 cells were cultured in the absence of serum or growth factors for 24 hours in the absence or presence of 100 μM of each rutin, trans-resveratrol, genistein, or quercetin. Cells were washed twice with ice-cold PBS, pH 7.2 and resuspended in extraction buffer, about 500 μl, comprising 20 mM HEPES-KOH (pH 7.0), 10 mM KCl, 1 mM NaEGTA, 2 mM MgCl2, 1 mM EDTA, 1 mM DTT, 250 mM sucrose, 1 mM PMSF and protease inhibitors cocktail as provided above. The lysate was incubated for 30 minutes on ice and then homogenized using a glass dounce (80 strokes). Nuclei were removed by centrifugation at 1,000 g for 10 minutes at 4° C. Supernatant was additionally centrifuged for 1 hour at 100,000 g and the resulting supernatant (cytosolic fraction) and pellet (mitochondrial fraction) were collected separately, subjected to SDS-PAGE, and Western blotting using an antibody against cytochrome c. The experiment was repeated twice with similar results.
In order to determine the role of the cancer cell's PTP in the effects of the polyphenolic compounds on mitochondrial function, caspase-3 activation and apoptosis, we performed the following experiments. Mia PACA-2 cells were cultured in the absence of serum or growth factors for 24 hours in the presence or absence of quercetin (100 μM), trans-resveratrol (100 μM), Z-VAD FMK (50 μM), cyclosporin A (5 μM) and/or aristolochic acid (50 μM). Cells were collected, washed with ice-cold PBS and resuspended in lysis buffer comprising 0.5% Nonidet P-40 or manufactured by the name IGEPAL CA-630, 0.5 mM EDTA, 150 mM NaCl and 50 mM Tris at pH 7.5. Cell lysates were placed for 30 minutes on a rotator at 4° C. and then centrifuged for 15 minutes at 15,000 g. Cytosolic protein extracts (supernatants) were collected, protein concentrations were determined and the extracts were aliquoted and stored at −80° C. Cytosolic extracts were subjected to SDS-PAGE and Western blot was performed with an antibody against cytochrome c. Blots were then stripped and re-probed with an antibody against tubulin to confirm equal protein loading. The experiment was repeated twice with similar results.
In order to determine the effect of a combination of trans-resveratrol and quercetin on cytochrome c release and caspase-3 activity, the following was conducted. Mia PACA-2 cells were cultured in the absence of serum or growth factors for 24 hours in the presence or absence of trans-resveratrol (25 μM), quercetin (25 μM), or the combination of trans-resveratrol (25 μM) and quercetin (25 μM). Cytosolic extracts were prepared and subject to SDS-PAGE followed by protein transfer. Immunoblot was performed with an antibody against tubulin to confirm equal protein loading.

Test [2] deals with Mia PACA-2 cells. The test can be described thus: Annexin staining (flow cytometry). The settings on record: Mia PACA-2, 72 hours, 0-100 μM, no serum. The class given is cell-based, human. The procedure: BSp73AS cells are derived from a rat pancreatic carcinoma and both Mia PACA-2 and BSp73AS cells have mutated p53 and express K-ras. Human pancreatic carcinoma cell line Mia PACA-2 and rat pancreatic carcinoma BSp73AS were cultured in Dulbecco's Modified Eagle's Medium supplemented with 10% heat inactivated FBS, penicillin G (100 U/ml) and streptomycin ([…]) in a humidified atmosphere comprising 5% (v/v) CO2. When cells were 90% confluent they were detached, washed with alternating centrifugation and resuspension, plated and incubated in the same media without FBS and with the indicated concentrations of polyphenolic compounds or vehicle for up to 96 hours. Oligonucleotide DNA fragmentation, annexin staining, and PARP proteolysis assays were conducted as follows:
Mia PACA-2 cells were cultured for 72 hours in the presence of 0, 12, 24, 50, and 100 μM rutin, quercetin, or trans-resveratrol. About 1×10^6 cells as determined with a hemocytometer were analyzed for annexin-V binding using an Annexin V-FLUOS Staining Kit (Boehringer Mannheim, Germany). […] Cells were analyzed on a FACScan flow cytometer (Becton Dickinson Immunocytometry System, San Jose, Calif.) equipped with a […] air-cooled 488 nm argon-ion laser. […]
Background: In flow cytometry, cells or beads pass a laser one at a time.

The test system of test [3] is caspase-3. The test can be described thus: Caspase-3 activity, fluorogenic assay with DEVD-AMC. Conditions: BSp73AS, up to 6 hours, 100 μM, no serum (FIGS. 6B, 6C). It counts as cell-based, rat. Here is the method:
To determine whether a polyphenolic compound activates caspase-3 activity in a time-dependent manner, the following assay was conducted. BSp73AS cells were cultured for 0, 1, 3, and 6 hours and Mia PACA-2 cells were cultured in the absence of serum or growth factors for 0, 1, 4, 6, and 24 hours in the presence of 100 μM or quercetin, trans-resveratrol, rutin, or control. Caspase-3 activity was measured in cell lysates with a fluorogenic assay using DEVD-AMC as a substrate. The results were normalized to the DEVDase activity in untreated cells.
To determine whether quercetin activates caspase-3 activity in a dose-dependent manner, the following assay was conducted. Cells were cultured for 6 hours in the absence of serum or growth factors in the presence of 0, 10, 20, 50, and 100 μM of quercetin. Caspase-3 activity was measured in cell lysates with a fluorogenic assay using DEVD-AMC as a substrate. The results were normalized to the DEVDase activity in untreated cells.

As to `O=c1c(-c2ccc(O)cc2)coc2cc(O)cc(O)c12` [genistein], in test [1], the “cytosolic and mitochondrial cytochrome c” value is “caused increases in cytosolic cytochrome c and decreases in mitochondrial cytochrome c”.
For `Oc1ccc(/C=C/c2cc(O)cc(O)c2)cc1` [trans-resveratrol], the “annexin staining (apoptosis)” value in test [2] is listed as “increase annexin staining”. Besides, the caspase-3 activation entry in test [3] is recorded as “caused caspase-3 activation”. Also, the “cytosolic and mitochondrial cytochrome c” value in test [1] was “caused increases in cytosolic cytochrome c and decreases in mitochondrial cytochrome c”.
Take `O=c1c(O)c(-c2ccc(O)c(O)c2)oc2cc(O)cc(O)c12` [quercetin]: the “annexin staining (apoptosis)” value in test [2] is reported as “increase annexin staining; also recorded: more potent in causing apoptosis than trans-resveratrol”. Also, in test [3], the caspase-3 activation entry is on record as “caused caspase-3 activation”. The “cytosolic and mitochondrial cytochrome c” value in test [1] is “caused increases in cytosolic cytochrome c and decreases in mitochondrial cytochrome c”.
